Key:
[1] = tested on: Homo sapiens; assay: Dose normalized AUC (0 to infinity) in healthy human plasma at 25 mg, po administered as single dose; assay type: ADME, organism-based; set-up: dose 25 mg, time infinity, route oral; conditions: in vivo
[2] = AUC (0 to infinity) in healthy human plasma at 25 mg, po administered as single dose; assay type: ADME, organism-based; set-up: dose 25 mg, time infinity, route oral
[3] = tested on: Homo sapiens; assay: Cmax in healthy human plasma after 25 mg oral dose, normalised for 70 kg subject; assay type: ADME, organism-based; set-up: dose 25 mg, route oral; conditions: in vivo
[4] = Cmax in healthy human plasma at 25 mg, po administered as single dose; assay type: ADME, organism-based; set-up: dose 25 mg, route oral
[5] = Tmax in healthy human plasma at 25 mg, po administered as single dose; assay type: ADME, organism-based
[6] = Half life in healthy human plasma at 25 mg, po administered as single dose; assay type: ADME, organism-based
[7] = Apparent oral clearance in healthy human plasma at 25 mg, po administered as single dose; assay type: ADME, organism-based
[8] = AUC (0 to infinity) in healthy human plasma at 50 mg, po administered as single dose; assay type: ADME, organism-based; set-up: dose 50 mg, route oral, time infinity
[9] = tested on: Homo sapiens; assay: Dose normalized AUC (0 to infinity) in healthy human plasma at 50 mg, po administered as single dose; assay type: ADME, organism-based; set-up: dose 50 mg, time infinity, route oral; conditions: in vivo
[10] = Cmax in healthy human plasma at 50 mg, po administered as single dose; assay type: ADME, organism-based; set-up: dose 50 mg, route oral
[11] = tested on: Homo sapiens; assay: Cmax in healthy human plasma after 50 mg oral dose, normalised for 70 kg subject; assay type: ADME, organism-based; set-up: dose 50 mg, route oral; conditions: in vivo
[12] = Tmax in healthy human plasma at 50 mg, po administered as single dose; assay type: ADME, organism-based
[13] = Half life in healthy human plasma at 50 mg, po administered as single dose; assay type: ADME, organism-based
[14] = Apparent oral clearance in healthy human plasma at 50 mg, po administered as single dose; assay type: ADME, organism-based
[15] = tested on: Homo sapiens; assay: Toxicity in healthy human assessed as adverse event occurrence at 25 mg, po administered as single dose; assay type: organism-based; conditions: in vivo
[16] = tested on: Homo sapiens; assay: Toxicity in healthy human assessed as adverse event occurrence at 50 mg, po administered as single dose; assay type: organism-based; conditions: in vivo
[17] = tested on: Homo sapiens; assay: Toxicity in healthy human assessed as adverse event occurrence at 100 mg, po administered as single dose; assay type: organism-based; conditions: in vivo
[18] = tested on: Homo sapiens; assay: Toxicity in healthy human assessed as adverse event occurrence at 250 mg, po administered as single dose; assay type: organism-based; conditions: in vivo
[19] = AUC (0 to infinity) in healthy human plasma at 100 mg, po administered as single dose; assay type: ADME, organism-based; set-up: dose 100 mg, route oral, time infinity
[20] = tested on: Homo sapiens; assay: Dose normalized AUC (0 to infinity) in healthy human plasma at 100 mg, po administered as single dose; assay type: ADME, organism-based; set-up: dose 100 mg, time infinity, route oral; conditions: in vivo
[21] = tested on: Homo sapiens; assay: Cmax in heathy human plasma after 100 mg oral dose, normalised for 70 kg subject; assay type: ADME, organism-based; set-up: dose 100 mg, route oral; conditions: in vivo
[22] = Tmax in healthy human plasma at 100 mg, po administered as single dose; assay type: ADME, organism-based
[23] = Half life in healthy human plasma at 100 mg, po administered as single dose; assay type: ADME, organism-based
[24] = Apparent oral clearance in healthy human plasma at 100 mg, po administered as single dose; assay type: ADME, organism-based
[25] = AUC (0 to infinity) in healthy human plasma at 250 mg, po administered as single dose; assay type: ADME, organism-based; set-up: dose 250 mg, time infinity, route oral
[26] = tested on: Homo sapiens; assay: Dose normalized AUC (0 to infinity) in healthy human plasma at 250 mg, po administered as single dose; assay type: ADME, organism-based; set-up: dose 250 mg, route oral, time infinity; conditions: in vivo
[27] = Cmax in healthy human plasma at 250 mg, po administered as single dose; assay type: ADME, organism-based; set-up: dose 250 mg, route oral
[28] = tested on: Homo sapiens; assay: Cmax in healthy human plasma after 250 mg oral dose, normalised for 70 kg subject; assay type: ADME, organism-based; set-up: dose 250 mg, route oral; conditions: in vivo
[29] = Tmax in healthy human plasma at 250 mg, po administered as single dose; assay type: ADME, organism-based
[30] = Half life in healthy human plasma at 250 mg, po administered as single dose; assay type: ADME, organism-based
[31] = Apparent oral clearance in healthy human plasma at 250 mg, po administered as single dose; assay type: ADME, organism-based
[32] = Drug concentration in healthy human urine assessed as unconjugated drug level at 250 mg, po administered as single dose after 48 hrs; assay type: ADME, organism-based; conditions: read-out: Drug uptake
[33] = Drug concentration in healthy human urine assessed as conjugated drug level at 250 mg, po administered as single dose after 48 hrs; assay type: ADME, organism-based; conditions: in vivo

C=C(C)[C@@H]1CC[C@]2(C(=O)O)CC[C@]3(C)[C@H](CC[C@@H]4[C@@]5(C)CC[C@H](OC(=O)CC(C)(C)C(=O)O)C(C)(C)[C@@H]5CC[C@]43C)[C@@H]12 [BEVIRIMAT]
AUC [1]: 170.2 µg·h/mL
AUC(0-inf) [2]: 151 µg·h/mL
Cmax [3]: 2.8 µg/mL
Cmax [4]: 2.24 µg/mL
Tmax [5]: 1.75 h
half-life [6]: 55.8 h
CL/F [7]: 2.89 mL/h/kg
AUC(0-inf) [8]: 312 µg·h/mL
AUC [9]: 362.1 µg·h/mL
Cmax [10]: 6.06 µg/mL
Cmax [11]: 7.3 µg/mL
Tmax [12]: 1 h
half-life [13]: 56.7 h
CL/F [14]: 2.76 mL/h/kg
Activity [15]: 16.7%
Activity [16]: 16.7%
Activity [17]: 50%
Activity [18]: 33.3%
AUC(0-inf) [19]: 983 µg·h/mL
AUC [20]: 1014 µg·h/mL
Cmax [21]: 14.9 µg/mL
Tmax [22]: 2 h
half-life [23]: 75.4 h
CL/F [24]: 1.75 mL/h/kg
AUC(0-inf) [25]: 1800 µg·h/mL
AUC [26]: 2221.8 µg·h/mL
Cmax [27]: 30.1 µg/mL
Cmax [28]: 31.1 µg/mL
Tmax [29]: 2.5 h
half-life [30]: 69 h
CL/F [31]: 2.43 mL/h/kg
dose excreted at 48 h [32]: 0.82%
Drug uptake [33]: 0.82 %ID
